Tested on: Aβ fiber
Assay: PRD pharmacological assessment of sciatic nerve pain
Type: in vivo, human
From the text: According to one embodiment, the neuro-stimulator can be integrated with a smartphone, thereby allowing for the detection of mechanism specific nociception via recording and parameterization of the PRD under a multitude of conditions. Parameterization of the PRD curve includes two static measures: a pupillary baseline and peak dilation diameters (dilation amplitude or DA), and at least three dynamic measures: slopes of the ascending and descending portions of the PRD curve representing the dilation velocity (DV) and recovery velocity, as well as the duration of the reflex, and the area under the curve representing pain sensitivity/intensity.
By one embodiment, large-fiber neuropathic pain is transmitted via Aβ nerve fiber type, which is stimulated at 2000 Hz. Neuropathic pain is detected and measured by examining the relationship of the parameters of the PRD to a 2000 Hz stimulus. Small fiber neuropathic pain is transmitted via C-fiber and Aδ fibers, and is often seen with metabolic disorders such as diabetes or chemotherapy induced neuropathic pain. The neuropathic pain index (NPI) integrates the intensity stimulus (mA) relative to the DV, DA, AUC and recovery time. Accordingly, neuropathic pain can be defined with respect to whether the pain is a small fiber based pain or a large fiber based pain. Moreover the NPI provisions for flexibility of monitoring an intervention. […]

Q: For `NCC1(CC(=O)O)CCCCC1` [Gabapentin], which “pain sensitivity (PRD) in sciatic nerve pain” value (compression of the Aβ fiber, large fiber neuropathic pain (FIG. 8B)) is on record?
A: diminishes the pain sensitivity

Q: What about the “area under the PRD curve compared with opioid intervention” value (sciatic nerve pain (FIG. 8B)) of the same molecule?
A: substantially smaller

Source: patent US10555687B2, “Apparatus and method for physiologic and pharmacodynamic assessment and monitoring” (priority 2015, dated 2020)
